Values quoted from earlier work, collected in patent US20240115666A1, “COMPOSITIONS AND METHODS FOR REDUCING GAMMA-GLUTAMYLTRANSFERASE LEVELS” (Lile Method Research, LLC, priority 2022, published 2024).

N[C@@H](CCC(=O)N[C@@H](CS)C(=O)NCC(=O)O)C(=O)O [glutathione, L-γ-glutamyl-L-cysteinylglycine]
half-life in the blood: seconds to minutes
